Assay results taken from patent US20080064668A1, “1,3-Diacylated, 26,27-Alkyl/Haloakyl Vitamin D3 Compounds and Methods of Use Thereof” (BioXell S.p.A., priority 2003, published 2008).
“Also recorded” adds a separate entry of the source. One block for each compound: values may come before it.

Columns and labels:
RT112 = test: Proliferation assay using bladder cancer cell lines, RT112; format: cell-based, human; conditions: 72 h culture, CyQuant proliferation assay
Procedure: (§1) Bladder cancer cell lines (T24, RT112, HT1376 and RT4 are human bladder cancer cell lines; NHEK are normal human keratinocytes) were obtained from the European Collection of Cell Cultures (Salisbury, UK). Cells were plated at 3×10^3 per well, in flat bottomed 96-well plates in 100 μl of DMEM medium containing: 5% Fetal Clone I, 50 μg/l gentamicin, 1 mM sodium pyruvate and 1% non-essential amino acids. After culturing for 24 h at 37° C. in 5% CO2, to allow cells to adhere to the plates, VDR ligands (compounds (2), (4), (5) and other vitamin D3 analogs as shown in Table 4) were added at concentrations ranging from 100 μM to 0.3 μM in 100 μl of above-mentioned complete medium. After a further 72 h of culture, cell proliferation was measured using a fluorescence-based proliferation assay kit. (CyQuant Cell Proliferation Assay Kit, Molecular Probes, Eugene, Oreg., USA). The IC50 was calculated from the regression curve of the titration data.

RT4 = test: Proliferation assay using bladder cancer cell lines, RT4; format: cell-based, human; conditions: 72 h culture, CyQuant proliferation assay
Procedure: as §1

NHEK = test: Proliferation assay, NHEK normal human keratinocytes; format: cell-based; conditions: 72 h culture, CyQuant proliferation assay
Procedure: as §1

ECV = test: Proliferation assay using bladder cancer cell lines, ECV; format: cell-based, human; conditions: 72 h culture, CyQuant proliferation assay
HT 1376 = test: Proliferation assay using bladder cancer cell lines, HT1376; format: cell-based, human; conditions: 72 h culture, CyQuant proliferation assay
Procedure: as §1

[1] = Determination of Maximum Tolerated Dose (MTD); conditions: for MTD at 4 days: female, C57BL/6, mouse, in vivo, po
Procedure: The maximum tolerated dose of the vitamin D3 compounds of the invention were determined in eight week-old female C57BL/6 mice (3 mice/group) dosed orally (0.1 ml/mouse) with various concentrations of Vitamin D3 analogs daily for four days. Analogs were formulated in miglyol for a final concentration of 0.01, 0.03, 0.1 0.3, 1, 3, 10, 30, 100 and 300 μg/kg when given at 0.1 ml/mouse p.o. daily. Blood for serum calcium assay was drawn by tail bleed on day five, the final day of the study.

IFN-γ production = IFN-γ production in the mixed leukocyte response (MLR); format: cell-based; conditions: 120 h; allogeneic PBMC from 2 donors, 5 days, ELISA; read-out: INF-γ IC50
Procedure: Immature dendritic cells (DC) were prepared as described in Romani, N. et al. (Romani, N. et al. (1996) J. Immunol. Meth. 196:137). IFN-γ production by allogeneic T cell activation in the mixed leukocyte response (MLR) was determined as described in Penna, G., et al., J Immunol., 164: 2405-2411 (2000).
Briefly, peripheral blood mononuclear cells (PBMC) were separated from buffy coats by Ficoll gradient and the same number (3×10^5) of allogeneic PBMC from 2 different donors were co-cultured in 96-well flat-bottom plates. The vitamin D3 compounds were added to each of the cultures.

IC50 (RT112; Homo sapiens, RT-112, 72 h): 2 µM
IC50 (RT4; Homo sapiens, RT-4, 72 h): 16 µM
IC50 (ECV; Homo sapiens): 76.6 µM
IC50 (HT 1376; Homo sapiens, HT-1376): > 100 µM
Structure (SMILES): C=C1/C(=C\C=C2/CCC[C@]3(C)C(C(C)C/C=C/[C@@](C)(O)C(F)(F)F)=CCC23)CC(OC(C)=O)C[C@@H]1OC(C)=O (stereo partly shown) [(16), 1,3-Di-O-acetyl-1,25-dihydroxy-16,23E-diene-25R,26-trifluoro-cholecalciferol]
IC50 (NHEK; Homo sapiens, NHEK): 3.1 µM

Structure (SMILES): CC(C/C=C\C(O)(C(F)(F)F)C(F)(F)F)C1=CCC2C(=CC=C3CC(O)CC(O)C3)CCCC12C (stereo not shown) [(1), 1,25-dihydroxy-16,23Z-diene-26,27-hexafluoro-19-nor-cholecalciferol, reference compound]
IC50 (RT112): 24 µM
IC50 (RT4): 20 µM
IC50 (NHEK): 4.4 µM
IC50 (ECV): 58.7 µM
IC50 (HT 1376): 56 µM

Structure (SMILES): CC(=O)OC1C/C(=C/C=C2\CCC[C@]3(C)C(C4(CCCC(C)(C)O)CC4)=CCC23)C[C@@H](OC(C)=O)C1 (stereo partly drawn) [(37), 1,3-Di-O-acetyl-1α,25-dihydroxy-16-ene-20-cyclopropyl-19-nor-cholecalciferol]
IC50 (RT112; Homo sapiens, RT-112, 72 h): 17.4 µM
IC50 (RT4; Homo sapiens, RT-4, 72 h): 3 µM
MTD at 4 days [1]: 10 µg/kg
IC50 (IFN-γ production): 0.068 nM

Structure (SMILES): CC(CC#CC(O)(C(F)(F)F)C(F)(F)F)C1=CCC2C(=CC=C3CC(O)CC(O)C3)CCCC12C (stereo not shown) [(3), 1,25-dihydroxy-16-ene-23-yne-26,27-hexafluoro-19-nor-cholecalciferol, reference compound]
MTD (mice) ([1]; female C57BL/6 mice, p.o. daily for four days, highest dose without hypercalcemia (serum calcium >10.7 mg/dl)): 0.3 µg/kg

Structure (SMILES): C=C1/C(=C\C=C2/CCC[C@]3(C)C(C4(CCCC(C)(C)O)CC4)=CCC23)CC(OC(C)=O)C[C@@H]1OC(C)=O (stereo partly drawn) [(39), 1,3-Di-O-acetyl-1α,25-hydroxy-16-ene-20-cyclopropyl-cholecalciferol]
IC50 (RT112; Homo sapiens, RT-112, 72 h): 21.5 µM
IC50 (RT4; Homo sapiens, RT-4, 72 h): 2.8 µM
MTD at 4 days [1]: 3 µg/kg
IC50 (IFN-γ production): 0.045 nM

Structure (SMILES): C=C1/C(=C\C=C2/CCC[C@]3(C)C(C(C)CC#CC(OC(C)=O)(C(F)(F)F)C(F)(F)F)=CCC23)CC(OC(C)=O)C[C@@H]1OC(C)=O (stereo partly shown) [(13), 1,3,25-Tri-O-acetyl-1,25-dihydroxy-16-ene-23-yne-26,27-hexafluoro-cholecalciferol]
IC50 (RT112; Homo sapiens, RT-112, 72 h): 17 µM
IC50 (RT4; Homo sapiens, RT-4, 72 h): 95 µM
IC50 (NHEK; Homo sapiens, NHEK): 19.5 µM
IC50 (ECV; Homo sapiens): > 100 µM
MTD at 4 days [1]: 3 µg/kg
IC50 (IFN-γ production): 0.0401 nM

Structure (SMILES): CC(=O)OC1C/C(=C/C=C2\CCC[C@]3(C)C(C(C)CC#CC(OC(C)=O)(C(F)(F)F)C(F)(F)F)=CCC23)C[C@@H](OC(C)=O)C1 (stereo partly shown) [(5), 1,3,25-Tri-O-acetyl-1,25-Dihydroxy-16-ene-23-yne-26,27-hexafluoro-19-nor-cholecalciferol]
IC50 (RT112; Homo sapiens, RT-112, 72 h): 13 µM
IC50 (RT4; Homo sapiens, RT-4, 72 h): 7 µM
IC50 (NHEK; Homo sapiens, NHEK): 25.6 µM
IC50 (ECV; Homo sapiens): 32 µM
MTD at 4 days [1]: 3 µg/kg
MTD compared with the corresponding dihydroxy (parent) compound ([1]; versus (1) or (3)): significantly higher; also recorded: considerably greater
IC50 (IFN-γ production): 0.499 nM
IC50 (HT 1376; Homo sapiens, HT-1376): > 100 µM

Structure (SMILES): CCC(O)(C#CCC(C)C1=CCC2/C(=C/C=C3/CC(OC(C)=O)C[C@H](OC(C)=O)C3)CCC[C@]12C)CC (stereo partly shown) [(22), 1,3-Di-O-acetyl-1,25-dihydroxy-16-ene-23-yne-26,27-bishomo-19-nor-cholecalciferol]
IC50 (RT112; Homo sapiens, RT-112, 72 h): 7 µM
IC50 (RT4; Homo sapiens, RT-4, 72 h): 9 µM
IC50 (NHEK; Homo sapiens, NHEK): 4.7 µM
IC50 (ECV; Homo sapiens): 81.7 µM
MTD at 4 days [1]: 100 µg/kg
IC50 (IFN-γ production): 0.0253 nM
IC50 (HT 1376; Homo sapiens, HT-1376): > 100 µM
